Sc1nc2ccccc2[nH]1
solubility (mole fraction)
Conditions | 283.15 K | 288.15 K | 293.15 K | 298.15 K | 303.15 K | 308.15 K | 313.15 K | 318.15 K | 323.15 K
in 2-butoxyethanol | 0.0459 | 0.0463 | 0.0469 | 0.0475 | 0.0484 | 0.0491 | 0.0498 | 0.0507 | 0.0515
in 2-ethoxyethanol | 0.0577 | 0.0583 | 0.059 | 0.0599 | 0.0607 | 0.0615 | 0.0623 | 0.0634 | 0.0646
in 2-methoxyethanol | 0.0682 | 0.0691 | 0.0703 | 0.0717 | 0.0729 | 0.0742 | 0.0758 | 0.0775 | 0.0793
in 2-propoxyethanol | 0.0497 | 0.0502 | 0.0506 | 0.0511 | 0.0519 | 0.0526 | 0.0535 | 0.0545 | 0.0555
in MIBK | 0.00859 | 0.00884 | 0.00913 | 0.00945 | 0.00983 | 0.0102 | 0.0106 | 0.011 | 0.0114
in ethyl formate | 0.00169 | 0.0018 | 0.00197 | 0.00211 | 0.00228 | 0.0025 | 0.00273 | 0.003 | 0.00323
in ethylene glycol | 0.0137 | 0.0147 | 0.0162 | 0.0175 | 0.0193 | 0.0206 | 0.022 | 0.0238 | 0.0254
in isobutanol | 0.00371 | 0.0046 | 0.00556 | 0.00638 | 0.00724 | 0.00813 | 0.0092 | 0.0103 | 0.0114
in isopropyl acetate | 0.00245 | 0.00255 | 0.00272 | 0.00283 | 0.00303 | 0.00318 | 0.00337 | 0.00364 | 0.00397
in n-butyl acetate | 0.00529 | 0.00538 | 0.00551 | 0.00564 | 0.00577 | 0.00597 | 0.00614 | 0.00637 | 0.00662
in sec-butanol | 0.00591 | 0.00729 | 0.00851 | 0.00972 | 0.011 | 0.0126 | 0.014 | 0.0159 | 0.0177

— BigSolDB 2.1
